Assay results reported in patent publication US20220220135A1 (BAR-ILAN UNIVERSITY, priority 2019, published 2022).

Tests used:
[1] = Stability to air-oxidation by 31P-NMR; type: physicochemical; conditions: aqueous solution, constant air flow, RT, 3 weeks
Description: To evaluate the chemical stability of uridine-5′-Pα,α-dithiophosphate analogues, we measured by 31P-NMR the time-dependent percentage of the analogues remaining under basic and acidic conditions, and due to air-oxidation.
An aqueous solution of 10 was subjected to a constant air flow.

NPP1 = biological target: T1, NPP1 (Homo sapiens, UniProt P22413); assay: Stability to hydrolysis by human NPP1; type: in vitro ADME; conditions: analogue 100 μM; activity with 100 μM ATP = 100%
T1 sequence (P22413 1-925): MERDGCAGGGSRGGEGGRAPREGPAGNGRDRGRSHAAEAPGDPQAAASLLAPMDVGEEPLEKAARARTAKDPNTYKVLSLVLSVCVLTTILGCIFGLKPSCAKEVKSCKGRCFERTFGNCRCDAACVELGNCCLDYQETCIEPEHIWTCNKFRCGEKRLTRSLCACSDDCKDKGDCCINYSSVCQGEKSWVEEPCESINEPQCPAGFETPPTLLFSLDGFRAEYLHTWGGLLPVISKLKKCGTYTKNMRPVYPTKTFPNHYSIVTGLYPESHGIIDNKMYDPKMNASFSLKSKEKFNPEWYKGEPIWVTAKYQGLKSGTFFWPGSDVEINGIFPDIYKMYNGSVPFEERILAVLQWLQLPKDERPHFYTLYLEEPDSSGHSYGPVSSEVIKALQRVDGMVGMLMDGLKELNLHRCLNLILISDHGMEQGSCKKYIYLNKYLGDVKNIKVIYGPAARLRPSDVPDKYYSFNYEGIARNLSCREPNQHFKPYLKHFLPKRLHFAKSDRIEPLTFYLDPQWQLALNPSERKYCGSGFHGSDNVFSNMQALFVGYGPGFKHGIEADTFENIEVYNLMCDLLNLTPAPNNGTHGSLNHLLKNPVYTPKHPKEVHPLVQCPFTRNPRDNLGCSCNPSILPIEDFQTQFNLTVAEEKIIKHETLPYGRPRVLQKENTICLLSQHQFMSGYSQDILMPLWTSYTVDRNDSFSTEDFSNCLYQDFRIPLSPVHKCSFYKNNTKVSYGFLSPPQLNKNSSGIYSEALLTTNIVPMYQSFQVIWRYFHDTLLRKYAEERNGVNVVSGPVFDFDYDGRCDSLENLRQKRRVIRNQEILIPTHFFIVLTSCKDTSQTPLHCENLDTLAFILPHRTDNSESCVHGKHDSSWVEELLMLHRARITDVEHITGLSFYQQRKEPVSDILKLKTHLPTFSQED
Protocol: Uridine 5′-Pα,α-phosphorodithioate analogues, 9-12, were tested for their stability to degradation by NPP1 and NTPDases. These enzymes are involved in the metabolism of extracellular nucleotides. Analogues 9-12 were not hydrolyzed by hNPP1 (Table 2). […] Analogue 10 was hydrolyzed by hNTPDase1, -2 and -3 at 30-39% the rate of ATP and was slightly hydrolyzed by human NTPDase8 at 16% the rate of ATP.
Analogues 9-12 were incubated in the presence of the indicated ectonucleotidase at a concentration of 100 μM. The activity with 100 μM ATP was set as 100%, which was 329±108, 302±34, 263±51, 195±76 nmol of Pi·min−1·mg of protein−1 for NTPDase1, -2, -3 and -8, respectively, and 34±7 nmol for NPP1. Data presented are the mean±SEM of results from two experiments.

NTPDase8 = biological target: T2, NTPDase8 (Homo sapiens, UniProt Q5MY95); assay: Inhibition of ATPase activity of human NTPDase8; type: biochemical; conditions: analogue at 100 μM; ATP 100 μM as substrate
T2 sequence (Q5MY95 1-495): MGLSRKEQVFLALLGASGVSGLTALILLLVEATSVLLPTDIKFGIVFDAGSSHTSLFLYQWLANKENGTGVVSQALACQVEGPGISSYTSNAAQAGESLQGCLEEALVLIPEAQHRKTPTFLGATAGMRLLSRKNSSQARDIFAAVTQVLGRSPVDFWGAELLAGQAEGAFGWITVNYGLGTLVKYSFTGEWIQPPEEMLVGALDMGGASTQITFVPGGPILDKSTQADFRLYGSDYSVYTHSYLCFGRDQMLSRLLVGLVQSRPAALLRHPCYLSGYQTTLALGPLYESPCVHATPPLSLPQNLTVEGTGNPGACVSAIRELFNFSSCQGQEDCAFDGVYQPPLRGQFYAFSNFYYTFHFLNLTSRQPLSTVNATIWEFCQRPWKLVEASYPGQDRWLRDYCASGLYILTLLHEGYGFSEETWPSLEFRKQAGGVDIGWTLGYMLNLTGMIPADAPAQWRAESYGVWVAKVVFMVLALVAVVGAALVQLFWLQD
Protocol: (§1) FIG. 2: Inhibition of NTPDases and NPPs by analogues 9-12 using as substrates ATP (100 μM) for NTPDase1,2,3,8 and pNP-TMP (100 μM) for NPP1,3 (Panel A); and ATP (100 μM) was used as the substrate for NPP1 (Panel B);
(§2) At least 2 independent experiments were performed. In panel A, the activity with 100 μM ATP was set as 100%, which was 287±31, 395±67, 278±22, 119±26 nmol of Pi·min−1·mg of protein−1 for human NTPDase1, -2, -3 and -8, respectively, and the activity with 100 μM pNP-TMP was set as 100% which was 67±5, 21±1 nmol of p-nitrophenol·min−1·mg of protein−1 for human NPP1 and NPP3, respectively. In panel B, the activity with 100 μM ATP was set as 100% which was 34±7 nmol of PPi·min−1·mg of protein−1 for NPP1.

NTPDase1 = biological target: T3, NTPDase1 (Homo sapiens, UniProt P49961); assay: Inhibition of ATPase activity of human NTPDase1; type: biochemical; conditions: analogue at 100 μM; ATP 100 μM as substrate
T3 sequence (P49961 1-510): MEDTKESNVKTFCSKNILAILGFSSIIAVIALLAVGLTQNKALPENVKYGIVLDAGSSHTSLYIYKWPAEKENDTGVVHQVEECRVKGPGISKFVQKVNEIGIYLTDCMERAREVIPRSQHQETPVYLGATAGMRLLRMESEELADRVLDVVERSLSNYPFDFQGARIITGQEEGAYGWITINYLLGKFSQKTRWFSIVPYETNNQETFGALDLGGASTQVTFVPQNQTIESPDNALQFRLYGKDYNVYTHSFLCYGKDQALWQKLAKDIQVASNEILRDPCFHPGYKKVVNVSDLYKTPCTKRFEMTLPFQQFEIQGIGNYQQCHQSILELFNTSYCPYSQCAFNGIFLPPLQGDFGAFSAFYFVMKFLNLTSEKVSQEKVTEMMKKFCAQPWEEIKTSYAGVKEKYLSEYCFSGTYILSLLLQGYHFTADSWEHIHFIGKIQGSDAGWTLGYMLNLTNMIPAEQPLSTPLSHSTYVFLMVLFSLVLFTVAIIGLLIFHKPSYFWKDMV
Protocol: as §1, §2

## O=c1ccn([C@@H]2O[C@H](COP(=S)(S)OP(=O)(O)OP(=O)(O)OP(=S)(S)OC[C@H]3O[C@@H](n4ccc(=O)[nH]c4=O)[C@H](O)[C@@H]3O)[C@@H](O)[C@H]2O)c(=O)[nH]1 (stereo partly drawn) [Analogue 12]
[1]
  stability to air-oxidation: completely resistant
NPP1
  Relative activity (%) ± SEM of ATP hydrolysis, NPP1: 0%
NTPDase8
  inhibition of human NTPDase8: selective to NPP1
NTPDase1
  inhibition of human NTPDase1: selective to NPP1

## O=c1ccn([C@@H]2O[C@H](COP(=S)(S)OP(=O)(O)CP(=O)(O)O)[C@@H](O)[C@H]2O)c(=O)[nH]1 (stereo partly drawn) [Analogue 11]
[1]
  stability to air-oxidation: complete stability
NPP1
  Relative activity (%) ± SEM of ATP hydrolysis, NPP1: 0%
NTPDase8
  inhibition of human NTPDase8: negligible effects
NTPDase1
  inhibition of human NTPDase1: negligible effects

## O=c1ccn([C@@H]2O[C@H](COP(=S)(S)OP(=O)(O)OP(=O)(O)O)[C@@H](O)[C@H]2O)c(=O)[nH]1 (stereo partly drawn) [Analogue 10]
[1]
  stability to air-oxidation: no new signals
NPP1
  Relative activity (%) ± SEM of ATP hydrolysis, NPP1: 0%
NTPDase8
  inhibition of human NTPDase8: no inhibition
NTPDase1
  inhibition of human NTPDase1: no inhibition
